The source of these data is patent US20230285389A1, “USE OF CSF-1R KINASE INHIBITOR” (Shanghai Runshi Medical Technology Co., Ltd, priority 2020, published 2023).

The subject of assay [1] is CD8+ T cells co-cultured with CSF-1-induced BMDMs. Conditions: BMDMs pre-incubated with compound; co-culture 72 h.
Assay [2] concerns mouse colon cancer CT-26 xenograft. The assay is described as follows: Growth of subcutaneous CT-26 xenografts, combination with anti-PD-1 antibody. The note with it: compound I alone (+ Rat IgG2a isotype), 5 mg/kg orally once a day, 12 days. Format: in vivo, BALB/c mice. How it is done:
CT-26 cells were subcutaneously inoculated into the right axillary fossa of BALB/c mice at a cell number of 5 × 10^6 per mouse. When the tumor cells successfully formed subcutaneous xenografts in the mice which further grew to an average volume of approximately 100 mm^3, the mice were randomly assigned to the dosing group and the control group. For the anti-PD-1 antibody group, an anti-PD-1 antibody (Bio X Cell Company, InVivoMAb anti-mouse PD-1 (CD279) (catalog : BE0273)) was administered […] once every three days at 10 mg/kg for 12 days. The control group was administrated the same amount of Hamster Ig (Rat IgG2a), as the isotype control of the anti-PD-1 antibody, and the administration route, dosage and frequency were same as those for the anti-PD-1 antibody group. […] Throughout the experiment, the tumor volume and the mice’s body weights were measured twice a week.
The tumor volume (TV) was calculated as TV = ½×a×b^2, where “a” and “b” are the length and width of the xenograft, respectively.
The relative tumor volume (RTV) was calculated from the results of the measurement according to the following equation:
RTV = Vt/V0, where V0 was the tumor volume measured at the beginning of administration (i.e., d0) and Vt was the tumor volume measured at each point.
The evaluation index of the anti-tumor activity was tumor growth inhibition ratio TGI (%), which was calculated as: […]

Assay [3] concerns mouse colon cancer MC38 xenografts. The assay is described as follows: Pharmacodynamic experiment, growth of subcutaneous MC38 xenografts. Format: in vivo. The note with it: for TV (mean ±SEM) D0: day 0 (baseline); for TGI D7 / TV (mean ±SEM) D7: day 7; for TGI D14 / TV (mean ±SEM) D14: day 14; for TGI D20 / TV (mean ±SEM) D20: day 20; for TGI D24 / TV (mean ±SEM) D24: day 24. How it is done: MC38 cells in good condition were re-suspended to 25 million cells/mL. 200 µL of cell suspension was inoculated subcutaneously in the right armpit of each mouse. When the tumor cells formed subcutaneous xenograft in the mice and grew to an average volume of approximately 100 mm^3, the mice were randomly assigned to the dosing group and the control group. The test compounds were prepared at the desired concentrations and corresponding equal amount of solvent was used as a solvent control. The drugs were administrated orally, and administrated once per day for 24 consecutive days.
During the dosing period, the xenograft volumes of the mice and the weights of the mice were measured every 2-4 days. The experiment was terminated 24 days after dosing.
The tumor volume (TV) was calculated as TV = ½×a×b^2, where “a” and “b” are the length and width of an xenograft, respectively.
Statistical tests were performed using the t test, with p≤0.05 representing a significant difference.

Assay [4] concerns IL4/IL13-polarized murine BMDMs. The assay is described as follows: M2-biased polarization phenotype of BMDMs, flow cytometry of surface markers. The note with it: mouse-derived BMDM, 48 h. Format: cell-based, BALB/c mice. How it is done: BALB/c mice (female, 6 weeks old, healthy) were sacrificed. Bone marrow cells were taken from their femurs and tibia, and seeded into a 6-well culture plate at appropriate densities ([…], per well) after erythrobiasis treatment. 100 ng/mL of CSF-1 factor was added to each well to induce macrophages (Bone marrow-derived macrophages, BMDM). After 7 days of induction, the cell culture medium was changed. CSF-1 factor was added at the same concentration as above, and M2 polarization of macrophages was induced with 10 ng/mL of IL4 and 10 ng/mL of IL13. While inducing polarization, compounds at various concentrations were added into test wells and negative control wells. After 48 h, the cells were harvested for flow cytometric analysis.
Cells in good condition were collected, and first washed twice with PBS. After washing, each sample was re-suspended with 100 µL of PBS and 0.5 µL of the fluorescent antibody prepared according to the manufacturer’s instructions to distinguish dead and live cells was added. The samples were stained in the dark at 4° C. for 30 min. After 30 min, the samples were washed twice with 1mL of the running buffer and the tubes were centrifuged at 300 g for 5 min at 4° C. The blocking antibody diluent was prepared by adding 2 µL of blocking antibody TruStain fcX™ (anti-mouse CD16/32) per 100 µL running buffer and was added on the basis of the 100 µL system of each sample. After blocking for 10 min, according to the manufacturer’s instructions, the fluorescent antibody corresponding to the surface protein was added to the samples, and the reactant was allowed for incubation at 4° C. for 30 min. At this step, a single staining control and an FMO control were set. Then, the samples were washed twice with 1 mL of the running buffer, and centrifuged at 300 g for 5 min at 4° C. each time.
If only surface proteins were to be examined, after centrifugation, the samples were re-suspended with 300 µL of PBS and immediately input into machines, or the samples were fixed with 4% paraformaldehyde for 15 min, and centrifuged at 500 g for 7 min. […]

As for `CNC(=O)c1cccc2cc(Oc3ccnc(NC(=O)c4ccc(N5C[C@@H](C)N[C@@H](C)C5)cc4)c3)ccc12` [Compound I], the “CD8+ T cell proliferation compared to solvent control” value in assay [1] was “substantially increased”. Moreover, the “TGI / tumor inhibition rate” value in assay [2] stood at 45.8%. Further, in assay [3] (2.5 mg/kg oral once per day), the “TV (mean ±SEM) D0” value is recorded as 79±13 mm3, the “TGI D7” value was 63.3%, the “TV (mean ±SEM) D7” value is reported as 119±17 mm3 and the “TGI D14” value was found to be 63.0%. In addition, in assay [3] (2.5 mg/kg oral once per day), the “TV (mean ±SEM) D14” value worked out at 232±39 mm3, the “TGI D20” value was 74.6%, the “TV (mean ±SEM) D20” value stood at 281±59 mm3 and the “TGI D24” value turned out to be 75.3%. In addition, the “TV (mean ±SEM) D24” value in assay [3] (2.5 mg/kg oral once per day) was 348±80 mm3. In assay [3] (10 mg/kg oral once per day), the “TV (mean ±SEM) D0” value came to 79±12 mm3, the “TGI D7” value is given as 100.9%, the “TV (mean ±SEM) D7” value was determined as 78±15 mm3 and the “TGI D14” value is recorded as 90.1%. In assay [3] (10 mg/kg oral once per day), the “TV (mean ±SEM) D14” value is 120±42 mm3, the “TGI D20” value turned out to be 95.2%, the “TV (mean ±SEM) D20” value worked out at 117±46 mm3 and the “TGI D24” value was 93.4%. Moreover, the “TV (mean ±SEM) D24” value in assay [3] (10 mg/kg oral once per day) was 150±64 mm3. Moreover, the “growth of murine colon cancer MC38 cell xenografts” value in assay [3] (oral once per day for 24 days) is “significantly inhibited”. The “expression level of surface marker CD206 (M2-type marker)” value in assay [4] (25, 50 and 100 nM) is given as “significantly inhibit”. For the same compound, in assay [4], the “expression level of surface marker CD86 (M1-type marker)” value is reported as “significantly enhance” and the “expression level of surface marker MHC-II (M1-type marker)” value is given as “significantly enhance”.
